IC50 data for seven molecules are collected here from US8445510B2, “Fused bicyclic kinase inhibitors” (OSI Pharmaceuticals, LLC, priority 2011, dated 2013).

For orientation: IC50 means the midpoint of a concentration-inhibition curve.

Holding throughout (assay type): cell-based
In experiment [1] the test system is MKN45 cells. The experiment in a line: MKN45 cell proliferation assay (CellTiter-Glo). To be noted: Homo sapiens, MKN-45, 72 h; MKN45 cell line; 3 days incubation; at least duplicate experiments; read-out: Prolif. IC50. A general note: Cellular ATP, detected with luciferase, serves as a proxy for viable cell number.
Experiment [2] deals with Karpas-299 cells. The experiment in a line: Karpas-299 cell proliferation assay (CellTiter-Glo). To be noted: Homo sapiens, 72 h; Karpas-299 cell line (NPM-ALK); 3 days incubation; at least duplicate experiments; read-out: Prolif. IC50.
The target of experiment [3] is T1, Aurora B (Homo sapiens, UniProt Q96GD4).
T1 construct: HT-29 cells grown in complete growth media
T1 sequence (Q96GD4 whole entry): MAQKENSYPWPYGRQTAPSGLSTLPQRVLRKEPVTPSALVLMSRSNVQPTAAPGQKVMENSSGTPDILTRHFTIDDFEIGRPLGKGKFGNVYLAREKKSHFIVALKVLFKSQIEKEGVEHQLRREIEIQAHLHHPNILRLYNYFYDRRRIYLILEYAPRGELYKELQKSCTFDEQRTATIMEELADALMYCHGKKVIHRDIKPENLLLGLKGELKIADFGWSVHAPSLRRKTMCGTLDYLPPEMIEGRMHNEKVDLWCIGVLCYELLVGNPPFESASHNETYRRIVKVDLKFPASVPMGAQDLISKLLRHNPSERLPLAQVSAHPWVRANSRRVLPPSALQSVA
Nature of the experiment: Aurora B cell mechanistic assay (HT-29), phospho-Histone H3 (Ser10) ELISA. As to conditions: HT-29 cell line; inhibition of phospho-Histone H3 (Ser10); at least duplicate experiments (italicized if single experiment); read-out: Aurora B mech IC50. Here is the method: The cellular activity of the compounds of the present invention against Aurora B may be determined by the following procedure. HT-29 cells grown in complete growth media (McCoy's 5A, 10% FCS, 1% L-glutamine) were plated into wells of a 96 well tissue culture plate (Falcon 3072) at a cell density of 4×10^4 cells/0.09 ml media/well. Cells were subsequently incubated overnight in a 5% CO2 humidified 37° C. incubator. The following day 10 μl of a 10× stock of test compound serially diluted in media was added to the cells and incubated for 1 h at 37° C. at which time Calyculin A (Cell Signaling #9902) was added at a concentration of 100 nM and cells incubated for an additional 30 minutes in a 5% CO2 humidified 37° C. incubator. Media was then aspirated and cells lysed using a Triton based lysis buffer. Lysates were transferred to a pre-coated anti-Histone H3 antibody coated plate supplied by Cell Signaling in their PathScan phospho-Histone H3 (Ser10) ELISA kit (#7155). After an overnight incubation with lysate the ELISA was continued following the manufacturer's instructions. Signal was measured on a Wallac Victor plate reader at 450 nm. DMSO control treated cells served as 100% signal and an Aurora B kinase inhibitor served as 100% inhibition. The percent inhibition of phospho-Histone H3 (Ser10) was expressed as % control. IC50 values were calculated from the percent control data using a standard four-parameter model.
The IC50 values of exemplary compounds of the present invention determined in a Aurora B cell mechanistic assay using the HT-29 cell line according to the procedures described herein in at least duplicate experiments are abbreviated as follows and are shown in Table 4: A, IC50≦0.05 μM; B, 0.05 μM<IC50≦0.2 μM; C, 0.2 μM<IC50≦1 μM; D, IC50>1 μM; ND, not determined. If only data from single experiments are available, the abbreviations are italicized. The Example # of Table 4 corresponds to the compound example number as illustrated in the Examples section.
In general terms: ELISA stands for enzyme-linked immunosorbent assay.

Experiment [4] concerns the target T2, RON (Homo sapiens, UniProt Q04912).
T2 sequence (Q04912 913-1400): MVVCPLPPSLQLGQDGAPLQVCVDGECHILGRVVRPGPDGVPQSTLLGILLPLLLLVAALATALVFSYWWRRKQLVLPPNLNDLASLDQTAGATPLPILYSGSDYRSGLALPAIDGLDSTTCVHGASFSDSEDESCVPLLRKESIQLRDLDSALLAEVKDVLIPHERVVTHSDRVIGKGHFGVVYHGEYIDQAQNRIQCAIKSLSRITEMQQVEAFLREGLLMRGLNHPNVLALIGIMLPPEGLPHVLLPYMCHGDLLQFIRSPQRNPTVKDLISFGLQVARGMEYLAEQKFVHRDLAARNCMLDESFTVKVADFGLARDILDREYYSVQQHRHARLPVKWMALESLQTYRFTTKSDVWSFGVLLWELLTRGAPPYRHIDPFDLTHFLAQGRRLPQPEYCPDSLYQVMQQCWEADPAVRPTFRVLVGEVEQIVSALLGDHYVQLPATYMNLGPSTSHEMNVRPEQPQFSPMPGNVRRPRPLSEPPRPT
The experiment in a line: sfRON cell mechanistic assay (HeLa), phosphorylated RON ELISA. To be noted: HeLa cells transfected with sfRON; inhibition of phosphorylated RON; four hours incubation; at least duplicate experiments; read-out: sfRON mech IC50. The gist of the method: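 HeLa cells transiently transfected with sfRON plasmid, then exposed 4 h at 37 °C to a 6-point compound series (typically 10 μM to 3 nM, 0.5% DMSO). Phospho-RON (pY1238/1239) in lysates measured by sandwich ELISA with luminescence. IC50 from 4-parameter fit of percent-of-DMSO-control data, at least duplicate runs.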

A value given as a limit tells only on which side of the number the result lay.

Regarding `COc1ccc(F)c(Cl)c1[C@@H](C)c1c[nH]c2ncc(-c3cn(C[C@H](O)CO)nc3C)cc12` [Example 9, (2S)-3-(4-{3-[(1S)-1-(2-Chloro-3-fluoro-6-methoxyphenyl)ethyl]-1H-pyrrolo[2,3-b]pyridin-5-yl}-3-methyl-1H-pyrazol-1-yl)propane-1,2-diol], the IC50 in experiment [1] is no more than 50 nM; in experiment [2], no more than 50 nM; in experiment [3], 200 to 1000 nM.
Consider `COc1ccc(F)c(Cl)c1[C@@H](C)c1c[nH]c2ncc(-c3cn(C)nc3C(F)(F)F)cc12` [Example 29, 3-[(1S)-1-(2-Chloro-3-fluoro-6-methoxyphenyl)ethyl]-5-[1-methyl-3-(trifluoromethyl)-1H-pyrazol-4-yl]-1H-pyrrolo[2,3-b]pyridine], for which the IC50 in experiment [1], in experiment [2] and in experiment [3] was greater than 1000 nM each time.
Turning to `COc1ccc(F)c(Cl)c1[C@@H](C)c1c[nH]c2ncc(-c3cn(CC(C)(C)O)nc3C(F)(F)F)cc12` [Example 30, 1-[4-{3-[(1S)-1-(2-Chloro-3-fluoro-6-methoxyphenyl)ethyl]-1H-pyrrolo[2,3-b]pyridin-5-yl}-3-(trifluoromethyl)-1H-pyrazol-1-yl]-2-methylpropan-2-ol], the figures for the IC50 in experiment [1], in experiment [2] and in experiment [3] were 200 to 1000 nM, 200 to 1000 nM and greater than 1000 nM, respectively.
`COc1ccc(F)c(Cl)c1[C@@H](C)c1c[nH]c2ncc(-c3cnn(C)c3Cl)cc12` [Example 59, 3-[(1S)-1-(2-Chloro-3-fluoro-6-methoxyphenyl)ethyl]-5-(5-chloro-1-methyl-1H-pyrazol-4-yl)-1H-pyrrolo[2,3-b]pyridine]: the figures for the IC50 in experiment [4], in experiment [2] and in experiment [3] were greater than 1000 nM, 200 to 1000 nM and greater than 1000 nM, respectively.
Turning to `Cc1c(-c2cnc3[nH]cc([C@H](C)c4c(OC[C@@H](O)CO)ccc(F)c4Cl)c3c2)cnn1C` [Example 68, (2S)-3-(3-Chloro-2-{(1S)-1-[5-(1,5-dimethyl-1H-pyrazol-4-yl)-1H-pyrrolo[2,3-b]pyridin-3-yl]ethyl}-4-fluorophenoxy)propane-1,2-diol], the IC50 was greater than 1000 nM in experiment [1], 200 to 1000 nM in experiment [2] and greater than 1000 nM in experiment [3].
As for `CCOc1ccc(F)c(Cl)c1[C@@H](C)c1c[nH]c2ncc(-c3c(C)nn(C[C@@H](O)CO)c3C)cc12` [Example 101, (2R)-3-(4-{3-[(1S)-1-(2-Chloro-6-ethoxy-3-fluorophenyl)ethyl]-1H-pyrrolo[2,3-b]pyridin-5-yl}-3,5-dimethyl-1H-pyrazol-1-yl)propane-1,2-diol], the IC50 in experiment [1] is no more than 50 nM; in experiment [2] it was no more than 50 nM; in experiment [3] it was greater than 1000 nM.
As for `Cc1c(-c2cnc3[nH]cc([C@H](C)c4c(OC[C@H](O)CO)ccc(F)c4Cl)c3c2)cnn1C` [Example 127, (2R)-3-(3-Chloro-2-{(1S)-1-[5-(1,5-dimethyl-1H-pyrazol-4-yl)-1H-pyrrolo[2,3-b]pyridin-3-yl]ethyl}-4-fluorophenoxy)propane-1,2-diol], the IC50 in experiment [1] was greater than 1000 nM; in experiment [2], 200 to 1000 nM; in experiment [3], greater than 1000 nM.
